According to publication PMC8449414, “Rational design of ASCT2 inhibitors using an integrated experimental-computational approach” (Proceedings of the National Academy of Sciences of the …, 2021):

Molecular target: T1, hASCT2 (Homo sapiens, UniProt Q15758)
T1 construct: expressed in transfected cells; host or cells: HEK293 (ATCC CRL-11268), transient transfection
T1 sequence (Q15758 1-541): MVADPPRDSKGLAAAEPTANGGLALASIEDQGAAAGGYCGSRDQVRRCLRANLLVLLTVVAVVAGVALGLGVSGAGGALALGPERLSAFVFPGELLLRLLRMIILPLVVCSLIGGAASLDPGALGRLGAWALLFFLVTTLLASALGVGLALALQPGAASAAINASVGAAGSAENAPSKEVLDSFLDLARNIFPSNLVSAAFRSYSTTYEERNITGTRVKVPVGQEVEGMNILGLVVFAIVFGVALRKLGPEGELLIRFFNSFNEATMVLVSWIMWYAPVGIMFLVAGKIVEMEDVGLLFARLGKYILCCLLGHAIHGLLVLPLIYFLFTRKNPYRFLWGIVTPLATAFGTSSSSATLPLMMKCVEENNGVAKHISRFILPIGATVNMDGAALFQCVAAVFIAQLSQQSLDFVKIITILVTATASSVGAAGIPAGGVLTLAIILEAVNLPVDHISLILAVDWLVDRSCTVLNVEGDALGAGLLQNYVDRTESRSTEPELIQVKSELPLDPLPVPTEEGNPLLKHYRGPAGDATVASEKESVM
Assay: Glutamine transport assay in proteoliposomes reconstituted with purified hASCT2
Type: biochemical
Conditions: in the presence of 5 µM glutamine; read-out: IC50, inhibition of glutamine uptake in proteoliposomes
Text: Our computational models predicted Lc-BPE as a competitive inhibitor targeting the substrate binding site. To test this prediction, we performed electrophysiological competition experiments in the presence of varying concentrations of the substrate, L-alanine. The results were consistent with a competitive inhibition mechanism (SI Appendix, Fig. S4). At low inhibitor concentrations, the alanine-induced currents were inward, as expected from transported substrates, indicative of the inability of Lc-BPE to displace alanine from the binding site. However, as inhibitor concentration increased, the currents became outwardly directed in a dose-dependent manner, which marked the displacement of alanine by the inhibitor (SI Appendix, Fig. S5). The apparent Ki increased as a function of the alanine concentration, as anticipated for a competitive mechanism (SI Appendix, Figs. S5 and S6). […] We further tested the inhibitory activity of Lc-BPE in a cell-free transport assay in proteoliposomes, where purified and reconstituted hASCT2 catalyzes the exchange of intracellular nonlabeled L-glutamine with extracellular radioactive-labeled L-glutamine. We observed a dose-dependent inhibition of glutamine transport when Lc-BPE was added externally, which confirms that this compound is an hASCT2 inhibitor with a half-maximum inhibitory concentration (IC50) value of 20 µM in the presence of 5 µM glutamine (Fig. 2D).
Dilutions to working concentrations were made using external buffer. The highest […]
cells. For rASCT2, hASCT2 and hASCT1, external buffer contained 140 mM NaCl, 2 mM MgCl2, 2 mM CaCl2, and 10 mM HEPES, pH 7.40 while internal pipette solution comprised of 130 mM NaSCN, 2 mM MgCl2, 10 mM EGTA, 10 mM HEPES and 10mM alanine, pH 7.40. […] Current s traces were recorded using an Adams and List EPC7 amplifier and digitized using a Molecular Devices Digidata A/D converter.
Data analysis was performed as described previously 46. Linear and nonlinear curve fitting of the experimental data were analyzed using MicroCal Origin software. […]

IC50 | SMILES
56 µM | N[C@@H](COC(=O)c1ccc(NC(=O)c2ccccc2)cc1)C(=O)O [ERA-21]
411 µM | O=C(O[C@H]1CN[C@H](C(=O)O)C1)c1ccc(C(=O)c2ccccc2)cc1 [ERA-35]

SMILES | IC50
O=C(O[C@@H]1CN[C@H](C(=O)O)C1)c1ccc(-c2ccccc2)cc1 [Lc-BPE, L-cis hydroxyproline biphenyl ester] | 20 µM
